Common to all, as to type: cell-based
For test [1], the system named is Human gastric cancer cell MKN45. Description: CCK-8 cell proliferation assay, MKN-45. As to conditions: MKN-45 cells, CCK-8, 24 hrs with drug, OD 450 nm. As for the experimental part: (§1) The effect of samples on the proliferation of human tumor cells in vitro was determined by CCK-8 cell proliferation assay.
(§2) The cells were assayed through a method including the following steps:
(§3) 1) The cells were digested, counted, and prepared into a cell suspension in a corresponding culture medium (Table 1) (5×10^4 cells/ml for CFPAC-1 and RPMI 8226, and 3.5×10^4 cells/ml for rest cells). The cell suspension was added to each well of a 96-well plate in 100 μl well.
(§4) 2) Then the 96-well plate was incubated for 24 hrs in an incubator at 37° C. and 5% CO2.
(§5) 3) The drug was diluted with the culture medium to the required working concentration. 100 μl of the corresponding drug containing medium was added to each well. A negative control group (added with drug-free culture medium) was also set.
(§6) 4) Then the 96-well plate was incubated for 24 hrs in an incubator at 37° C. and 5% CO2.
(§7) 5) The 96-well plate was stained with CCK-8, and The OD value was determined at λ=450 nm.
(§8) a) 10 μl of CCK-8 was added to each well, and incubated in the incubator for another 2-3 hrs.
(§9) b) The content was mixed uniformly by shaking gently on a shaker for 10 min, and the bubbles in the 96-well plate were removed.
(§10) 6) The inhibition rate in each group was calculated.
Background: Formazan colour is commonly taken as a measure of viable cells.

Test [2] deals with Human colon cancer cell HCT-116. Nature of the test: CCK-8 cell proliferation assay, HCT116. The conditions noted are these: HCT116 cells, CCK-8, 24 hrs with drug, OD 450 nm. As for the experimental part: as §1, §2, §3, §4, §5, §6, §7, §8, §9, §10
The test system of test [3] is Human pancreatic cancer cell CFPAC-1. Description: CCK-8 cell proliferation assay, CFPAC-1. As to conditions: CFPAC-1 cells, CCK-8, 24 hrs with drug, OD 450 nm. As for the experimental part: as §1, §2, §3, §4, §5, §6, §7, §8, §9, §10
Test [4] deals with Human hepatoma cell HepG2. Nature of the test: CCK-8 cell proliferation assay, HepG2. As to conditions: HepG2 cells, CCK-8, 24 hrs with drug, OD 450 nm. As for the experimental part:
as §1, §2, §3, §4, §5, §6, §7, §8, §9, §10

For test [5], the system named is Human lung adenocarcinoma cell A549. Nature of the test: CCK-8 cell proliferation assay, A549. As to conditions: A549 cells, CCK-8, 24 hrs with drug, OD 450 nm. As for the experimental part: as §1, §2, §3, §4, §5, §6, §7, §8, §9, §10
Test [6] relates to Human multiple myeloma cell RPMI 8226. Description: CCK-8 cell proliferation assay, RPMI8226. The conditions noted are these: RPMI8226 cells, CCK-8, 24 hrs with drug, OD 450 nm. As for the experimental part: as §1, §2, §3, §4, §5, §6, §7, §8, §9, §10
Test [7] concerns Human esophageal cancer cell TE-1. Nature of the test: CCK-8 cell proliferation assay, TE-1. As to conditions: TE-1 cells, CCK-8, 24 hrs with drug, OD 450 nm. As for the experimental part:
as §1, §2, §3, §4, §5, §6, §7, §8, §9, §10

Regarding `O=C(NCCCCCCC1CCN(C(=O)c2ccc[nH]2)C1)Nc1cccnc1` (stereo not shown) [BSS-TP112, 1-(6-(1-(2-pyrrolylformyl)pyrrolidin-3-yl)hexyl)-2-(3-pyridinyl)urea], the IC50 (commonly the concentration that inhibits the measured activity by half) came to 59 nM in test [1]; 78 nM in test [2]; 36 nM in test [3]; 81 nM in test [4]; 52 nM in test [5]; 42 nM in test [6]. Further, in test [7], the IC50 turned out to be 93 nM.

Regarding `O=C(NCCCCCCC1CCN(C(=O)c2ccccc2)C1)Nc1ccnc(F)c1` (stereo not shown) [BSS-TP113], the IC50 in test [1] was determined as 42 nM; in test [2], 41 nM; in test [3], 38 nM; in test [4], 83 nM; in test [5], 33 nM; in test [6] it was 38 nM. This compound displayed an IC50 in test [7] of 77 nM.

Turning to `O=C(NCCCCCCC1CCN(C(=O)c2ccc[nH]2)C1)Nc1ccnc(F)c1` (stereo not shown) [BSS-TP114], the 50% inhibitory concentration (IC50) stood at 51 nM in test [1]; 85 nM in test [2]; 33 nM in test [3]; 72 nM in test [4]; 49 nM in test [5]; 39 nM in test [6]. Further, the IC50 in test [7] worked out at 76 nM.

On to `O=C(NCCCCCCC1CCN(C(=O)c2ccco2)C1)Nc1ccnc(F)c1` (stereo not shown) [BSS-TP115], for which the IC50 was 40 nM in test [1]; 68 nM in test [2]; 39 nM in test [3]; 79 nM in test [4]; 51 nM in test [5]; 46 nM in test [6]. The IC50 in test [7] was 88 nM.

As to `O=C(NCCCCCCC1CCN(C(=O)c2cccs2)C1)Nc1ccnc(F)c1` (stereo not shown) [BSS-TP116], the IC50 in test [1] stood at 79 nM; in test [2], 83 nM; in test [3], 47 nM; in test [4], 81 nM; in test [5], 39 nM; in test [6] it was 31 nM. The compound also came in with an IC50 in test [7] of 69 nM.

For the compound `O=C(NCCCCCCC1CCN(C(=O)c2ccccc2)C1)Nc1cc(F)nc(F)c1` (stereo not shown) [BSS-TP117], the IC50 in test [1] turned out to be 45 nM; in test [2] it was 53 nM; in test [3], 37 nM; in test [4], 49 nM; in test [5] it was 58 nM; in test [6] it was 36 nM. Besides, in test [7], inhibition was half-maximal at 47 nM (IC50).

`O=C(NCCCCCCC1CCN(C(=O)c2ccco2)C1)Nc1cc(F)nc(F)c1` (stereo not shown) [BSS-TP118]: the IC50 was 62 nM in test [1]; 61 nM in test [2]; 42 nM in test [3]; 64 nM in test [4]; 59 nM in test [5]; 24 nM in test [6]. The same compound returned an IC50 in test [7] of 81 nM.

With `O=C(NCCCCCCC1CCN(C(=O)c2cccs2)C1)Nc1cc(F)nc(F)c1` (stereo not shown) [BSS-TP119], the IC50 came to 61 nM in test [1]; 50 nM in test [2]; 38 nM in test [3]; 83 nM in test [4]; 72 nM in test [5]; 43 nM in test [6]. Further, in test [7], the IC50 came out at 87 nM.

As for `O=C(NCCCCCCC1CCN(C(=O)c2ccc[nH]2)C1)Nc1cc(F)nc(F)c1` (stereo not shown) [BSS-TP120], the IC50 was 42 nM in test [1]; 66 nM in test [2]; 35 nM in test [3]; 53 nM in test [4]; 47 nM in test [5]; 28 nM in test [6]. For the same compound, the IC50 in test [7] amounted to 49 nM.

For `O=C(NCCCCCCC1CCN(C(=O)c2cc3ccccc3[nH]2)C1)Nc1ccncc1` (stereo not shown) [BSS-TP121, 1-(6(1-(2-indolylformyl)pyrrolidin-3-yl)hexyl)-2-(4-pyridinyl)urea], the IC50 in test [1] was 32 nM; in test [2], 83 nM; in test [3] it was 51 nM; in test [4], 72 nM; in test [5], 69 nM; in test [6], 52 nM. Moreover, in test [7], inhibition was half-maximal at 74 nM (IC50).

Turning to `O=C(NCCCCCCC1CCN(C(=O)c2cc3ccccc3o2)C1)Nc1ccncc1` (stereo not shown) [BSS-TP122, 1-(6-(1-(2-benzofurylformyl)pyrrolidin-3-yl)hexyl)-2-(4-pyridinyl)urea], the IC50 is 61 nM in test [1]; 69 nM in test [2]; 49 nM in test [3]; 71 nM in test [4]; 67 nM in test [5]; 26 nM in test [6]. This compound yielded an IC50 in test [7] of 63 nM.

For `O=C(NCCCCCCC1CCN(C(=O)c2cc3ccccc3[nH]2)C1)Nc1ccnc(F)c1` (stereo not shown) [BSS-TP123], the IC50 in test [1] turned out to be 69 nM; in test [2] it was 58 nM; in test [3], 59 nM; in test [4], 59 nM; in test [5] it was 63 nM; in test [6], 32 nM. The IC50 in test [7] worked out at 65 nM.

As to `O=C(NCCCCCCC1CCN(C(=O)c2cc3ccccc3o2)C1)Nc1ccnc(F)c1` (stereo not shown) [BSS-TP124], the half-maximal inhibitory concentration (IC50) in test [1] came out at 64 nM; in test [2], 73 nM; in test [3], 42 nM; in test [4], 63 nM; in test [5], 56 nM; in test [6], 39 nM. Also, in test [7], the IC50 amounted to 82 nM.

As to `COc1cccc(OC)c1C(=O)N1CCC(CCCCCCNC(=O)Nc2cc(F)nc(F)c2)C1` (stereo not shown) [BSS-TP125], the IC50 in test [1] came to 57 nM; in test [2], 49 nM; in test [3], 47 nM; in test [4] it was 52 nM; in test [5] it was 46 nM; in test [6], 28 nM. The compound further gave an IC50 in test [7] of 43 nM.

`COc1cccc(OC)c1C(=O)N1CCC(CCCCCCCNC(=O)Nc2ccncc2)C1` (stereo not shown) [BSS-TP126, 1-(7-(1-(2,6-dimethoxybenzoyl)pyrrolidin-3-yl)heptyl)-2-(4-pyridinyl) urea]: the IC50 came to 32 nM in test [1]; 63 nM in test [2]; 53 nM in test [3]; 92 nM in test [4]; 55 nM in test [5]; 33 nM in test [6]. Also, in test [7], the midpoint of inhibition, the IC50, lay at 88 nM.

Take `COc1cccc(OC)c1C(=O)N1CCC(CCCCNC(=O)Nc2ccncc2)C1` (stereo not shown) [BSS-TP127, 1-(4-(1-(2,6-dimethoxybenzoyl)pyrrolidin-3-yl)butyl)-2-(4-pyridinyl) urea]: the IC50 in test [1] was 109 nM; in test [2], 76 nM; in test [3], 58 nM; in test [4] it was 102 nM; in test [5], 75 nM; in test [6], 34 nM. Further, half-maximal inhibition in test [7] (IC50) was put at 135 nM.

As for `O=C(NCCCCCCCC1CCN(C(=O)c2ccco2)C1)Nc1ccncc1` (stereo not shown) [BSS-TP128, 1-(7-(1-(furoyl)pyrrolidin-3-yl)heptyl)-2-(4-pyridinyl)urea], the IC50 in test [1] was 51 nM; in test [2], 97 nM; in test [3] it was 53 nM; in test [4], 110 nM; in test [5], 68 nM; in test [6] it was 36 nM. This compound yielded an IC50 in test [7] of 124 nM.

Take `O=C(NCCCCCCCC1CCN(C(=O)c2ccc[nH]2)C1)Nc1ccncc1` (stereo not shown) [BSS-TP129, 1-(7-(1-(2-pyrrolylformyl)pyrrolidin-3-yl)heptyl)-2-(4-pyridinyl)urea]: the IC50 in test [1] turned out to be 49 nM; in test [2], 72 nM; in test [3], 28 nM; in test [4], 93 nM; in test [5], 73 nM; in test [6], 23 nM. In addition, half-maximal inhibition in test [7] (IC50) required 96 nM.

Turning to `COc1cccc(OC)c1C(=O)N1CCC(CCCCCCCNC(=O)Nc2ccnc(F)c2)C1` (stereo not shown) [BSS-TP130], the IC50 is 73 nM in test [1]; 46 nM in test [2]; 43 nM in test [3]; 55 nM in test [4]; 56 nM in test [5]; 38 nM in test [6]. Also, the half-maximal inhibitory concentration (IC50) in test [7] came to 61 nM.

Take `O=C(NCCCCCCCC1CCN(C(=O)c2ccccc2)C1)Nc1ccncc1` (stereo not shown) [BSS-TP131]: the IC50 in test [1] was 47 nM; in test [2], 75 nM; in test [3], 36 nM; in test [4] it was 67 nM; in test [5], 43 nM; in test [6], 29 nM. The IC50 in test [7] amounted to 69 nM.

`O=C(NCCCCCCCC1CCN(C(=O)c2ccccc2)C1)Nc1ccnc(F)c1` (stereo not shown) [BSS-TP132]: the half-inhibitory concentration (IC50) in test [1] was determined as 39 nM; in test [2], 65 nM; in test [3], 30 nM; in test [4], 61 nM; in test [5], 51 nM; in test [6], 34 nM. Further, the IC50 in test [7] came out at 77 nM.

`O=C(/C=C/c1cccnc1)NCCCCC1CCN(C(=O)c2ccccc2)CC1` [FK866, reference compound]: the IC50 in test [1] turned out to be 39 nM; in test [2] it was 92 nM; in test [3] it was 37 nM; in test [4], 99 nM; in test [5] it was 37 nM; in test [6], 20 nM. In addition, in test [7], the IC50 was 112 nM.
